Experimental data: ChEMBL document CHEMBL5291721, “A preclinical secondary pharmacology resource illuminates target-adverse drug reaction associations of marketed drugs” (Nat Commun, 2023)

Columns and labels:
[1] = biological target: 5-hydroxytryptamine receptor 2A (Homo sapiens, UniProt P28223)
[2] = biological target: T1, Nuclear receptor subfamily 1 group I member 3 (Homo sapiens, UniProt Q14994); format: functional
T1 sequence (Q14994 whole entry): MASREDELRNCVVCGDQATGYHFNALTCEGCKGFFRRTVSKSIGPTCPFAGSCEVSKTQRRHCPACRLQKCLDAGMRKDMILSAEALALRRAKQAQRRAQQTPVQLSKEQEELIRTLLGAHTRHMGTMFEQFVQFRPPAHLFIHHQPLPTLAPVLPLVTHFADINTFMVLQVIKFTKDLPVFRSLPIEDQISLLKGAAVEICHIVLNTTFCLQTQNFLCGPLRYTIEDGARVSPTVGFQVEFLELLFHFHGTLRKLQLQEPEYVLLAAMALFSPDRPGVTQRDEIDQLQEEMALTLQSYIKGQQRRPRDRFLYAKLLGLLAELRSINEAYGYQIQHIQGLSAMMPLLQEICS

[3] = biological target: T2, Peroxisome proliferator-activated receptor alpha (Homo sapiens, UniProt Q07869); format: functional
T2 sequence (Q07869 whole entry): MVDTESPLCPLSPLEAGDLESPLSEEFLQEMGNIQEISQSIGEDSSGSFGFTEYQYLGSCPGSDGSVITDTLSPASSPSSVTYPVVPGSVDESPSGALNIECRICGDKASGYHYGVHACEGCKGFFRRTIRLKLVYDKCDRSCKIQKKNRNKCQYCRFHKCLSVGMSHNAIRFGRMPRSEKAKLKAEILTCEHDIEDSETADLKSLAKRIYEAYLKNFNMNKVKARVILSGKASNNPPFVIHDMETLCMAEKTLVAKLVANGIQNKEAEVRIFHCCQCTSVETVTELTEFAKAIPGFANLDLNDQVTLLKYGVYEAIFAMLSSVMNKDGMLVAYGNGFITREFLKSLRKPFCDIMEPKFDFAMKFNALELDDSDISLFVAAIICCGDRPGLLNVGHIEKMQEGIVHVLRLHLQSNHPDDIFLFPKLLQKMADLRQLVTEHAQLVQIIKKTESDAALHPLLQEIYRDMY

[4] = biological target: T2, Peroxisome proliferator-activated receptor alpha; format: functional; remark: listed apart in the source
Substance-K receptor = biological target: T3, Substance-K receptor (Homo sapiens, UniProt P21452)
T3 sequence (P21452 whole entry): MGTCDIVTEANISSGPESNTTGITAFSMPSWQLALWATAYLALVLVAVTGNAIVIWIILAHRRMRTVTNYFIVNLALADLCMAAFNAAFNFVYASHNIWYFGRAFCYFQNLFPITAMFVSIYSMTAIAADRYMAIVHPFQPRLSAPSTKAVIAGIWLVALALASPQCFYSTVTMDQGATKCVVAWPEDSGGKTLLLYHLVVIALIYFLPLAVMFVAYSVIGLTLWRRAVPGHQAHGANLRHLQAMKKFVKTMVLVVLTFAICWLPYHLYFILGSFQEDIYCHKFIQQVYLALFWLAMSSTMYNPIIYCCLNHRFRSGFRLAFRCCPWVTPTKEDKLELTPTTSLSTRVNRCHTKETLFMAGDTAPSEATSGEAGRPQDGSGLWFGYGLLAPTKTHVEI

[5] = biological target: 5-hydroxytryptamine receptor 5A (Homo sapiens, UniProt P47898)
Sequence of 5-hydroxytryptamine receptor 5A (P47898 whole entry): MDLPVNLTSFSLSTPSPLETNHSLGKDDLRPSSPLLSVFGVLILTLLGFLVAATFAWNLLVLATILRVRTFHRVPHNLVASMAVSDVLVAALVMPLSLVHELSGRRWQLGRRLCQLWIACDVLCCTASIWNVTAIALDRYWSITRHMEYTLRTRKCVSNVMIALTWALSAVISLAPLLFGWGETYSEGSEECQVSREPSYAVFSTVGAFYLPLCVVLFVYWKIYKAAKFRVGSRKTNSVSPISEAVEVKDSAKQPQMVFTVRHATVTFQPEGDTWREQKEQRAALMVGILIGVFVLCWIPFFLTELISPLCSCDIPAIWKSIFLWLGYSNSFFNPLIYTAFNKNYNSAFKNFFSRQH

[6] = biological target: T4, Muscarinic acetylcholine receptor M4 (Homo sapiens, UniProt P08173)
T4 sequence (P08173 whole entry): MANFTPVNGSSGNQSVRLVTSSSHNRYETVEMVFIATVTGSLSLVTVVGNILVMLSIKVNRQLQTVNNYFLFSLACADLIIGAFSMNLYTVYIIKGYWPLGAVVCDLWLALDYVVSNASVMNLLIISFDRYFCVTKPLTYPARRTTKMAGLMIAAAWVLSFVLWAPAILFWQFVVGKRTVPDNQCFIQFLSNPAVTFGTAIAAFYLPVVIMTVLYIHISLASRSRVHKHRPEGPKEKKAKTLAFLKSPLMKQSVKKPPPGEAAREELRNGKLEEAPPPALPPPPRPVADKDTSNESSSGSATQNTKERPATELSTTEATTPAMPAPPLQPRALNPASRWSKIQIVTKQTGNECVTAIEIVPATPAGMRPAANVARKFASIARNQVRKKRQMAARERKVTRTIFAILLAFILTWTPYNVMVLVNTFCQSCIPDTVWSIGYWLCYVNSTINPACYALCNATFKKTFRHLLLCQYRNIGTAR

Androgen receptor = biological target: T5, Androgen receptor (Rattus norvegicus, UniProt P15207); format: functional
T5 sequence (P15207 whole entry): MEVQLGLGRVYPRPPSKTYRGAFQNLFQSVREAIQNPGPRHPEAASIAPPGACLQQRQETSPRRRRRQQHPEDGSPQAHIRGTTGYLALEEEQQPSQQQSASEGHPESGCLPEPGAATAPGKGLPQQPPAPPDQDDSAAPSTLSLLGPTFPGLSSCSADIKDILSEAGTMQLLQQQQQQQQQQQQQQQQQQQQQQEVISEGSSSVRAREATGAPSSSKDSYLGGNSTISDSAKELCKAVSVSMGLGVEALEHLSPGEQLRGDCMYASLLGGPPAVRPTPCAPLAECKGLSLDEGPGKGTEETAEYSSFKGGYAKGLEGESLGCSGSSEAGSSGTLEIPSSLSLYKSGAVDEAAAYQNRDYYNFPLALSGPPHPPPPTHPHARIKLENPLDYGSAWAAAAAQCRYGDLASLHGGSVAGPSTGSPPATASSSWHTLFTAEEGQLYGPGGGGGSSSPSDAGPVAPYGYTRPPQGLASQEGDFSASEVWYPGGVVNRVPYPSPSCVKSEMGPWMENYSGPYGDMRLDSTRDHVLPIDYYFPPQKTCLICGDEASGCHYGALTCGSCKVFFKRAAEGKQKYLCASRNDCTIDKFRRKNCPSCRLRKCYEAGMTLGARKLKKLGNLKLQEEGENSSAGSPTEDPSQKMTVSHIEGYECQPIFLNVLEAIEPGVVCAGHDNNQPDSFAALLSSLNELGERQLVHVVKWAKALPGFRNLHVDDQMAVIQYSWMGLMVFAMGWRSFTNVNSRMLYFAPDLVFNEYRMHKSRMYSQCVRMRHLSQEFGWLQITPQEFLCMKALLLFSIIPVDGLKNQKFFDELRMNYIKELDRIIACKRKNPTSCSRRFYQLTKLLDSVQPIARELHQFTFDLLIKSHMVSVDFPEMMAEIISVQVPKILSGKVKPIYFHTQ
Also: assay procedure not described here.

Sequence of 5-hydroxytryptamine receptor 2A (P28223 whole entry): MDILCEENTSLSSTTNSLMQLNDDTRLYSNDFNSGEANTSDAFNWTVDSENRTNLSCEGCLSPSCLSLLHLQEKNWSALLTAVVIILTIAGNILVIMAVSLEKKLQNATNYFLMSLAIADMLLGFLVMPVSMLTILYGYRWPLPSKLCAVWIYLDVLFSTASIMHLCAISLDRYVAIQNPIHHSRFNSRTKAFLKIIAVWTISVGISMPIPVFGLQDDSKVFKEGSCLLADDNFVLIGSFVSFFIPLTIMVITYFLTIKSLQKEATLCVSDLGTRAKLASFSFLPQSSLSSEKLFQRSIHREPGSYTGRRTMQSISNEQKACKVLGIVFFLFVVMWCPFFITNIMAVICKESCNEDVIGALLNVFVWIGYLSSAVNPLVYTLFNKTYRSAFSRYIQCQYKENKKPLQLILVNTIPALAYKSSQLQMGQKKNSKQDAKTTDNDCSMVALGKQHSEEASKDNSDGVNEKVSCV

Row | SMILES | AC50 [3] | AC50 [4] | AC50 (Substance-K receptor) | AC50 [5] | AC50 [6] | other results
1 | O=C1Nc2ccc(Cl)cc2[C@@](C#CC2CC2)(C(F)(F)F)O1 [EFAVIRENZ] | – | – | – | – | – | AC50 [1]: 3.79 µM
2 | CN1C(C(=O)Nc2ccccn2)=C(O)c2sc(Cl)cc2S1(=O)=O [LORNOXICAM] | > 30 µM | > 30 µM | – | – | – | AC50 [2]: > 30 µM; AC50 [1]: > 10 µM
3 | CCC(C)n1ncn(-c2ccc(N3CCN(c4ccc(OCC5COC(Cn6cncn6)(c6ccc(Cl)cc6Cl)O5)cc4)CC3)cc2)c1=O (stereo unspecified) [ITRACONAZOLE] | > 30 µM | > 30 µM | – | – | – | AC50 [2]: > 30 µM
4 | Cc1ccc(-c2cc(C(F)(F)F)nn2-c2ccc(S(N)(=O)=O)cc2)cc1 [CELECOXIB] | – | – | > 10 µM | > 10 µM | > 10 µM | –
5 | CCC1=C(C)CN(C(=O)NCCc2ccc(S(=O)(=O)NC(=O)N[C@H]3CC[C@H](C)CC3)cc2)C1=O [GLIMEPIRIDE] | > 30 µM | > 30 µM | – | – | – | –
6 | C=CCc1ccccc1OCC(O)CNC(C)C (stereo unspecified) [ALPRENOLOL] | – | – | – | – | – | AC50 (Androgen receptor): > 30 µM
7 | CS(=O)(=O)c1ccc(C2=C(c3ccccc3)C(=O)OC2)cc1 [ROFECOXIB] | – | – | > 10 µM | > 10 µM | > 10 µM | –
8 | O=C(O[C@H]1C[C@H]2CC[C@@H](C1)[N+]21CCCC1)C(O)(c1ccccc1)c1ccccc1 [TROSPIUM] | – | – | – | – | – | AC50 (Androgen receptor): > 30 µM
9 | Cn1nnc2c(C(N)=O)ncn2c1=O [TEMOZOLOMIDE] | – | – | – | – | – | AC50 [1]: > 10 µM
10 | CC[C@H]1[C@@H](O)[C@@H]2[C@H](CC[C@]3(C)[C@@H]([C@H](C)CCC(=O)O)CC[C@@H]23)[C@@]2(C)CC[C@@H](O)C[C@@H]12 [OBETICHOLIC ACID] | – | – | – | – | – | AC50 (Androgen receptor): > 30 µM
11 | NCC(CC(=O)O)c1ccc(Cl)cc1 (stereo unspecified) [BACLOFEN] | – | – | > 10 µM | > 10 µM | > 10 µM | –
12 | CC(=O)Nc1ccc(O)cc1 [ACETAMINOPHEN] | > 30 µM | > 30 µM | – | – | – | –
13 | CN(C)CCC(c1ccc(Cl)cc1)c1ccccn1 (stereo unspecified) [CHLORPHENIRAMINE] | – | – | > 10 µM | > 10 µM | > 10 µM | –
14 | N[C@@H]1[C@H]2CN(c3nc4c(cc3F)c(=O)c(C(=O)O)cn4-c3ccc(F)cc3F)C[C@@H]12 [TROVAFLOXACIN] | – | – | – | – | – | AC50 [2]: > 30 µM
15 | Cc1c(C(=O)NN2CCCCC2)nn(-c2ccc(Cl)cc2Cl)c1-c1ccc(Cl)cc1 [RIMONABANT] | > 30 µM | > 30 µM | > 10 µM | > 10 µM | > 10 µM | AC50 [2]: 6.6 µM; AC50 [1]: > 10 µM
